Like-named read-outs stand apart in the source and are kept apart here.
How the values were obtained:
[1] = test system: 金黄色葡萄球菌SG511; assay type: cell-based, 金黄色葡萄球菌
[2] = test system: 表皮葡萄球菌 012GO42; experiment: In vitro antibacterial activity, MIC, 18 h; assay type: cell-based; details: incubation time 18h; strain 012GO42
[3] = Solubility (physicochemical properties); details: methanol, water
[4] = test system: S.mitis 02mitGR16; experiment: In vitro antibacterial activity, MIC, 18 h; assay type: cell-based; details: incubation time 18h; strain 02mitGR16
[5] = test system: 011HT3; experiment: In vitro antibacterial activity, MIC, 18 h; assay type: cell-based; details: incubation time 18h
[6] = test system: 金黄色葡萄球菌 O11HT1; experiment: In vitro antibacterial activity, MIC, 18 h; assay type: cell-based; details: incubation time 18h; strain O11HT1
[7] = test system: 表皮葡萄球菌 012GO20; experiment: In vitro antibacterial activity, MIC, 18 h; assay type: cell-based; details: incubation time 18h; strain 012GO20
[8] = Tolerability and toxicity; details: at the active concentration and the concentrations mentioned above
[9] = test system: 金黄色葡萄球菌 0121O64; experiment: In vitro antibacterial activity, MIC, 18 h; assay type: cell-based; details: incubation time 18h; strain 0121O64
[10] = test system: Streptogr G02G0CB2; experiment: In vitro antibacterial activity, MIC, 18 h; assay type: cell-based, Streptogr G; details: incubation time 18h; strain 02G0CB2
[11] = test system: 化脓葡萄球菌A561; assay type: cell-based, 化脓葡萄球菌; details: strain A561
[12] = test system: 化脓葡萄球菌 02A1F16; experiment: In vitro antibacterial activity, MIC, 18 h; assay type: cell-based; details: incubation time 18h; strain 02A1F16
[13] = test system: 金黄色葡萄球菌Exp54146; assay type: cell-based, 金黄色葡萄球菌; details: strain Exp54146
[14] = test system: S.pnenmoniae 030BI2; experiment: In vitro antibacterial activity, MIC, 18 h; assay type: cell-based; details: incubation time 18h; strain 030BI2
[15] = test system: 粪肠球菌 02D2HT10; experiment: In vitro antibacterial activity, MIC, 18 h; assay type: cell-based; details: incubation time 18h; strain 02D2HT10
[16] = test system: 粪肠球菌 02D2HM9; experiment: In vitro antibacterial activity, MIC, 18 h; assay type: cell-based; details: incubation time 18h; strain 02D2HM9
[17] = test system: 屎肠球菌M78L; assay type: cell-based, 屎肠球菌; details: strain M78L
[18] = test system: 化脓葡萄球菌 02A1SJ1; experiment: In vitro antibacterial activity, MIC, 18 h; assay type: cell-based; details: incubation time 18h; strain 02A1SJ1
[19] = test system: 化脓葡萄球菌 02A1CU1; experiment: In vitro antibacterial activity, MIC, 18 h; assay type: cell-based; details: incubation time 18h; strain 02A1CU1
[20] = test system: Staph.coag.negative012HT5; experiment: In vitro antibacterial activity, MIC, 18 h; assay type: cell-based, Staph.coag.negative; details: incubation time 18h; strain 012HT5
[21] = test system: 金黄色葡萄球菌 011DU5; experiment: In vitro antibacterial activity, MIC, 18 h; assay type: cell-based; details: incubation time 18h; strain 011DU5
[22] = test system: 大肠杆菌; assay type: cell-based
[23] = test system: 011HT18; experiment: In vitro antibacterial activity, MIC, 18 h; assay type: cell-based; details: incubation time 18h; strain 011HT18
[24] = test system: S.milleri 02milGR12; experiment: In vitro antibacterial activity, MIC, 18 h; assay type: cell-based; details: incubation time 18h; strain 02milGR12
[25] = test system: 金黄色葡萄球菌 011CB20; experiment: In vitro antibacterial activity, MIC, 18 h; assay type: cell-based; details: incubation time 18h; strain 011CB20
[26] = test system: 粪肠球菌 02D2uC5; experiment: In vitro antibacterial activity, MIC, 18 h; assay type: cell-based; details: incubation time 18h; strain 02D2uC5
[27] = test system: 粪肠球茵 02D2DU18; experiment: In vitro antibacterial activity, MIC, 18 h; assay type: cell-based; details: incubation time 18h; strain 02D2DU18
[28] = Stability in solution (physicochemical properties); details: neutral / weakly alkaline vs strongly acidic / strongly alkaline media
[29] = incubation time 24h, strain SG511
[30] = incubation time 24h, strain SG511 + 10% serum
[31] = strain 011HT3 + 50% serum (first such line)
[32] = strain 011HT3 + 50% serum (second such line)
[33] = Boc-derivative table, 接种时间24h, strain SG511
[34] = Boc-derivative table, 接种时间24h, strain SG511 + 10% serum

Row | Substance | MIC [1, 29] | MIC [1, 30] | MIC [2] | MIC [4] | MIC ([5]; strain 011HT3) | MIC [5, 31] | MIC [5, 32] | MIC [6] | MIC [7] | MIC [9] | MIC [10] | MIC ([11]; incubation time 24h) | MIC [12] | MIC ([13]; incubation time 24h) | MIC [14] | MIC [15] | MIC [16] | MIC ([17]; incubation time 24h) | MIC [18] | MIC ([22]; incubation time 24h) | other results
1 | Ala(0)-阿卡加定 | 5 µg/mL | 20 µg/mL | > 40 µg/mL | 20 µg/mL | 20 µg/mL | 20 µg/mL | 40 µg/mL | 1.1 µg/mL | > 40 µg/mL | > 40 µg/mL | 20 µg/mL | ≤ 0.04 µg/mL | ≤ 0.04 µg/mL | 40 µg/mL | 2.5 µg/mL | > 40 µg/mL | > 40 µg/mL | 5 µg/mL | ≤ 0.04 µg/mL | > 40 µg/mL | Solubility [3]: 溶于甲醇和水; Cytotoxicity or other toxicity [8]: 没有发现其细胞毒性或其它的毒性; Tolerability [8]: 耐受性很好; MIC [19]: ≤ 0.04 µg/mL; MIC [20]: > 40 µg/mL; MIC [21]: 40 µg/mL; MIC [23]: > 40 µg/mL; MIC [24]: 40 µg/mL; MIC [25]: > 40 µg/mL; MIC [26]: 20 µg/mL; MIC [27]: 5 µg/mL; Stability in solution [28]: 于中性和弱碱性介质中稳定，但于强酸性和强碱性溶液中不稳定
2 | Boc-Ile(0)-阿卡加定 [Boc-Ile-Acta] | – | – | – | – | – | – | – | – | – | – | – | – | – | – | – | – | – | – | – | – | MIC [1, 33]: 20 µg/mL; MIC [1, 34]: 40 µg/mL; MIC ([11]; Boc-derivative table, 接种时间24h): > 40 µg/mL; MIC ([13]; Boc-derivative table, 接种时间24h): > 40 µg/mL; MIC ([17]; Boc-derivative table, 接种时间24h): > 40 µg/mL; MIC ([22]; Boc-derivative table, 接种时间24h): > 40 µg/mL
3 | Gln(0)-阿卡加定 [Gln-Acta] | 20 µg/mL | 40 µg/mL | – | – | – | – | – | – | – | – | – | 5 µg/mL | – | > 40 µg/mL | – | – | – | 10 µg/mL | – | > 40 µg/mL | –
4 | Ile(0)-阿卡加定 [Ile-Acta] | 1.2 µg/mL | 2.5 µg/mL | > 40 µg/mL | 10 µg/mL | 2.5 µg/mL | 2.5 µg/mL | 5 µg/mL | 1.2 µg/mL | > 40 µg/mL | > 40 µg/mL | 10 µg/mL | ≤ 0.04 µg/mL | ≤ 0.04 µg/mL | 2.5 µg/mL | 1.2 µg/mL | > 40 µg/mL | 40 µg/mL | 5 µg/mL | ≤ 0.04 µg/mL | > 40 µg/mL | MIC [19]: ≤ 0.04 µg/mL; MIC [20]: > 40 µg/mL; MIC [21]: 10 µg/mL; MIC [23]: > 40 µg/mL; MIC [24]: > 40 µg/mL; MIC [25]: 40 µg/mL; MIC [26]: 40 µg/mL; MIC [27]: 5 µg/mL
5 | Lys(0)-阿卡加定 [Lys-Acta] | 1.2 µg/mL | 2.5 µg/mL | > 40 µg/mL | 10 µg/mL | 10 µg/mL | 10 µg/mL | 10 µg/mL | 0.6 µg/mL | > 40 µg/mL | > 40 µg/mL | 5 µg/mL | ≤ 0.04 µg/mL | ≤ 0.04 µg/mL | 10 µg/mL | 2.5 µg/mL | > 40 µg/mL | > 40 µg/mL | 5 µg/mL | ≤ 0.04 µg/mL | > 40 µg/mL | MIC [19]: ≤ 0.04 µg/mL; MIC [20]: > 40 µg/mL; MIC [21]: 10 µg/mL; MIC [23]: > 40 µg/mL; MIC [24]: 40 µg/mL; MIC [25]: > 40 µg/mL; MIC [26]: 40 µg/mL; MIC [27]: 5 µg/mL
6 | N-Boc-Abu(0)-阿卡加定 [Boc-Abu-Acta] | – | – | – | – | – | – | – | – | – | – | – | – | – | – | – | – | – | – | – | – | MIC [1, 33]: 5 µg/mL; MIC [1, 34]: 10 µg/mL; MIC ([11]; Boc-derivative table, 接种时间24h): > 40 µg/mL; MIC ([13]; Boc-derivative table, 接种时间24h): > 40 µg/mL; MIC ([17]; Boc-derivative table, 接种时间24h): > 40 µg/mL; MIC ([22]; Boc-derivative table, 接种时间24h): > 40 µg/mL
7 | Phe(0)-阿卡加定 [Phe-Acta] | 0.6 µg/mL | 5 µg/mL | – | – | – | – | – | – | – | – | – | > 40 µg/mL | – | 5 µg/mL | – | – | – | > 40 µg/mL | – | > 40 µg/mL | –
8 | Phe-Ala(0)-阿卡加定 [Phe-Ala-Acta] | 5 µg/mL | 10 µg/mL | – | – | – | – | – | – | – | – | – | > 40 µg/mL | – | 20 µg/mL | – | – | – | 10 µg/mL | – | > 40 µg/mL | –
9 | 二-Boc-Lys(0)-阿卡加定 [Boc-Lys-Acta] | – | – | > 40 µg/mL | 5 µg/mL | 10 µg/mL | 20 µg/mL | 40 µg/mL | 10 µg/mL | > 40 µg/mL | > 40 µg/mL | 2.5 µg/mL | – | ≤ 0.04 µg/mL | – | 1.2 µg/mL | > 40 µg/mL | > 40 µg/mL | – | 0.08 µg/mL | – | MIC [1, 33]: 2.5 µg/mL; MIC [1, 34]: 10 µg/mL; MIC ([11]; Boc-derivative table, 接种时间24h): ≤ 0.04 µg/mL; MIC ([13]; Boc-derivative table, 接种时间24h): 10 µg/mL; MIC ([17]; Boc-derivative table, 接种时间24h): 10 µg/mL; MIC [19]: ≤ 0.04 µg/mL; MIC [20]: > 40 µg/mL; MIC [21]: 40 µg/mL; MIC ([22]; Boc-derivative table, 接种时间24h): > 40 µg/mL; MIC [23]: > 40 µg/mL; MIC [24]: 5 µg/mL; MIC [26]: 40 µg/mL; MIC [27]: 10 µg/mL
